Here are results for one compound from US10076511B2, “Bisamide derivative of dicarboxylic acid as an agent for stimulating tissue regeneration and recovery of diminished tissue function” (TREAMID GmbH, priority 2015, dated 2018).

“And” between values parts separate entries of the source, which are not always exact repeats. Equal entries are not always repeated.

One assay concerns male Wistar rats. The experiment in a line: Sperm motility in hypogonadotropic hypogonadism simulated with Synestrol. The class given is in vivo, rat. Particulars: Synestrol 50 U/kg/day, Treamid 0.5 mg/kg or Tribestan 70 mg/kg intraperitoneally Day 31-45. As for the experimental part:
Hypogonadotropic hypogonadism was simulated by the administration of Synestrol. Estrogens are able to inhibit the secretion of LH (Luteinizing hormone) and FSH (follicle stimulating hormone). An increase in the concentration of estrogens in a male body is accompanied by an increase in the content of sex-steroid-binding globulins, which leads to a decrease in the concentration of free testosterone and to the appearance of asthenospermia.
Experiments were performed on 36 male Wistar rats (3 months of age). For 30 days after the beginning of the experiment, all male rats (except for the background group) were intramuscularly injected with Synestrol at a dose of 50 U/kg/day. Further, from Day 31 to Day 45 of the experiment, the animals of the experimental group, in addition to Synestrol, were intraperitoneally administered Treamid at dose of 0.5 mg/kg or reference drug Tribestan at a dose of 70 mg/kg. The effectiveness of Treamid was estimated by the number of motile sperm forms (percentage of motile sperm forms) isolated from the epididymis. The results of the studies were compared with those for the administration of Synestrol (control) and reference drug Tribestan.

The subject of assay [1] is precursors for spermatogenic tissue. In words: Growth of colonies from CFU-Sp with in vitro addition of Treamid. Format: cell-based, rat. The following applies: Cells of the testes of intact rats. On the procedure: The precursor cells of the studied organ were cultured by using an underlayer (represented by the cells of the adherent fraction) prepared in advance in a 96-well plate, as described above.
Further, a nonadherent cell fraction of spermatogenic tissue was isolated from the two groups of animals (intact animals and animals received Paclitaxel intravenously 24 hours prior to the study) and was transferred to the resulting underlayer in complete culture medium (80% DMEM, 20% FCS, L-glutamine, antibiotics, heparin) at a concentration of 2×10^5/ml. Prior to the incubation in the complete culture medium, Treamid was added at a concentrations of 1 ng/ml, 3 ng/ml, 10 ng/ml, 30 ng/ml, 100 ng/ml, 300 ng/ml and 1000 ng/ml. The incubation lasted for 7 days in a CO2 incubator at 37° C., 5% CO2 and 100% air humidity. After the incubation, the number of colony-forming units, spermatogenic (CFU-Sp)—clusters of more than 30 cells of round shape and of various diameters—was counted.
The effectiveness of Treamid was estimated by a significant increase in the number of cells giving rise to CFU-Sp in the culture with the addition of the test compound, compared to that in the control.
The direct action of Treamid on the precursors for spermatogenic tissue was studied in vitro by addition of Treamid to the cell culture at concentrations of 1, 30, 100, and 1000 ng/ml.

The subject of assay [2] is male C57BL/6 mice. The experiment in a line: Metabolic syndrome model in mice (streptozotocin + high-fat diet): pancreas, glucose, testosterone. Format: in vivo, mouse. On the procedure: Metabolic disorders were simulated as follows: on Day 2 after birth, male C57Bl/6 mice were injected with streptozotocin at a dose of 200 mg/kg once, subcutaneously in the withers area, and the volume of the injected solution was 30 μl. From week 4 after birth, the animals were transferred to a diet high in fat. For this purpose, the used feed was enriched with heavy saturated fats (30% fat) (Siff EF R/M with 30% Fat Cat No. E15116-34, Germany). The duration of feeding with a high-fat feed was 42 days (from Day 28 to Day 70 of the experiment). […] The control animals received the equivalent volume of a solvent (2% starch mucus), instead of the test compound.
On Days 28, 35, 42, 49, 56, 63, and 70 of the study, blood glucose was determined. The blood glucose level was determined with a glucometer meter (Accu-Chek Performs Nanu (“Roche Diagnostes GmbH”, Germany). Blood glucose was measured in animals after 16-hour feed deprivation; all subsequent measurements of the glucose level were also performed after 16-hour feed deprivation.
On Day 70 day, animals were euthanized in a CO2 chamber. Then, the serum free testosterone level was studied, and the morphological examination of the pancreas was performed.
The level of free testosterone in the serum was evaluated by enzyme immunoassay according to the protocol of manufacturer's test system.
For morphological study, a part of the pancreas adjacent to the spleen was fixed in 10% formalin and poured into paraffin according to the standard method.
Deparaffined sections of the gland were stained with hematoxylin and eosin. On the sections, the area of 10 serial islets of Langerhans was determined by graphic computer analysis, and the total number of cells and the number of pyknotized cells were counted therein. Then, the number of cells per unit islet area and the percentage of the pyknotized cells were calculated. Inflammatory cells (neutrophils, lymphocytes, macrophages) in the pancreatic tissue and their composition were studied by staining of the histological sections with hematoxylin-eosin.

Assay [3] concerns male C57BL/6 mice. In words: Fertility of male mice on a metabolic syndrome model. Format: in vivo, mouse. As for the experimental part: Metabolic disorders were simulated as follows: on Day 2 after birth, male C57Bl/6 mice were injected with streptozotocin at a dose of 200 mg/kg, once, subcutaneously in the withers area, and the volume of the injected solution was 30 μl. From week 4 after birth, the animals were transferred to a high-fat diet. For this purpose, the used feed was enriched with heavy saturated fats (30% fat) (Siff EF R/M with 30% Fat Cat No. E15116-34, Germany). The animals were held on the high-fat diet for 42 days (from Day 28 to Day 70 of the study). Treamid was administered at a dose of 10 mg/kg intragastrically once daily, every day from Day 49 to Day 80 of the experiment. The control animals received the equivalent volume of a solvent, instead of the test compound.
The fertility of the males was estimated as follows: intact females were placed to the males of the experimental groups in a ratio of 1:2 for a period of from Day 70 to Day 80 of the study. During this period, the males of the experimental group continued to be administered intragastrically Treamid once daily at a dose of 10 mg/kg.
At the end of the mating period, on Day 80 of the study, the males were euthanized in a CO2 chamber. The blood of the animals was taken and analyzed for serum levels of free testosterone by enzyme immunoassay. Euthanasia was performed in the morning hours from 9:30 to 11:00.
The females were sacrificed in the CO2 chamber on Day 18 of pregnancy. The fetuses in the uterus were examined. The fertility index (FI) was calculated to assess fertility: FI=number of fertilized females/number of females placed with males×100%.

[4] abbreviates: Day 70, Treamid (1 mg/kg), n = 8.

For the compound `O=C(CCCC(=O)NCCc1ncc[nH]1)NCCc1ncc[nH]1` [Treamid], the “The number of motile sperm cells (%)” value in the assay on male Wistar rats (group X ± m) was 69.06 ± 2.98#*⋄ %; in the assay with male Wistar rats (individual animals), 67.04% and 56.84% and 78.65% and 59.09% and 72.63% and 66.67% and 66.99% and 85.55% and 68.08%. Also, the “CFU-Sp per 4 × 10^4 nuclears” value stood at 6.83 ± 0.48 per 4 × 10^4 nuclears in assay [1] (Treamid 1 ng/ml), 6.0 ± 0.36 per 4 × 10^4 nuclears in assay [1] (Treamid 30 ng/ml), 8.50 ± 0.42 per 4 × 10^4 nuclears in assay [1] (Treamid 100 ng/ml) and 11.67 ± 1.81 per 4 × 10^4 nuclears in assay [1] (Treamid 1000 ng/ml). Further, the “Serum glucose concentration” value in the assay on male C57BL/6 mice [2] (Day 28 (before Treamid, given Day 49-70)) was 5.36 ± 1.28 mmol/L; in the assay with male C57BL/6 mice [2] (Day 35 (before Treamid, given Day 49-70)), 4.21 ± 1.81 mmol/L; in the assay on male C57BL/6 mice [2] (Day 42 (before Treamid, given Day 49-70)) it was 12.75 ± 2.6 mmol/L; in the assay with male C57BL/6 mice [2] (Day 49, Treamid 10 mg/kg intragastrically Day 49-70), 13.59 ± 2.41 mmol/L; in the assay on male C57BL/6 mice [2] (Day 70, Treamid 10 mg/kg intragastrically Day 49-70) it was 21.82 ± 5.83 mmol/L. Also, the “Serum glucose concentration (mmol/L)” value in the assay with male C57BL/6 mice [2] (Day 56, Treamid 10 mg/kg intragastrically Day 49-70) is 12.91 ± 4.48*• mmol/L; in the assay on male C57BL/6 mice [2] (Day 63, Treamid 10 mg/kg intragastrically Day 49-70), 14.47 ± 3.21*• mmol/L. Further, the “Free testosterone (pg/ml), serum” value in the assay on male C57BL/6 mice [2] (Day 70, Treamid 10 mg/kg) was 3.70 ± 0.46 pg/mL. Also, the “% of pyknotized cells in the islet of Langerhans” value with male C57BL/6 mice [2] (setting [4]) is reported as 0.99 ± 0.06• %. Also, the “Area of an islet (pixel)” value in the assay with male C57BL/6 mice [2] (setting [4]) is 743399 ± 21134*• pixel. Besides, the “The number of islets in 30 vision fields” value in the assay on male C57BL/6 mice [2] (setting [4]) was 7.4 ± 0.37•. Also, the “increase of free testosterone in the blood serum in comparison with intact animals” value with male C57BL/6 mice [3] (10 mg/kg, Day 80) was 16%. Further, in the assay with male C57BL/6 mice [3] (10 mg/kg, Day 80), the “increase of free testosterone in the blood serum in comparison with the pathological control” value was found to be 2 times. Besides, the “Free testosterone in the blood serum (pg/ml)” value in the assay with male C57BL/6 mice [3] (Day 80, Treamid 10 mg/kg intragastrically Day 49-80) is recorded as 3.46 ± 1.87*• pg/ml. Further, the “fertility index relative to untreated metabolic disorders (pathological control)” value in the assay on male C57BL/6 mice [3] (Treamid 10 mg/kg Day 49-80) is on record as 1.8 times. Moreover, in the assay on male C57BL/6 mice [3] (mating Day 70-80, Treamid 10 mg/kg Day 49-80), the “Fertility index, %” value is given as 55*• %.
